Our source for the melting point values is a melting point compilation (Tetko et al.; mined from patent text by program, amines drawn as free bases though some values may be those of a salt).

Compound `Brc1cnc(N2CCCC2)c(OCC2CCCC2)n1` displayed a melting point of 54 to 55 °C.
`O=C(O)CCSCC(=O)c1ccc2[nH]c(=O)[nH]c2c1` showed a melting point of 212 to 215 °C.
Regarding `Cc1nc2c3c(ccc2n1C)[C@H](O)C[C@H](c1ccccc1)O3` (relative stereo), the melting point lay within 228 to 229 °C.
Turning to `Cc1cc(CC2(Cc3ccncc3)c3cccnc3-c3ncccc32)cc(C)n1`, the melting point is above 240 °C.
In turn, `Fc1ccc(-c2n[nH]cc2-c2ccnc(NCc3ccccc3)n2)cc1` came in with a melting point of 216 to 217 °C.
`COc1ccc(C2=NN(C3CCN(C(=O)c4ccccc4OC)CC3)C(=O)C(C)(C)C2)cc1OC`: the melting point lay in the range of 157 to 159 °C.
Regarding `O=S(CCC=C(F)F)NCc1ccc(Cl)cc1` (stereo not given), the melting point lay within 37 to 38 °C.
In the case of `CCOC(=NC(=O)c1cccc(C)c1)N1Cc2ccccc2-c2ccccc2C1` it was 102 to 105 °C; in that of `N#CN=C(Nc1cccnc1)NC1CCCCC1`, 185 to 186 °C.
The compound `CCCOc1ccc(C(=O)OC)cc1-c1ccc(C#N)c(=O)[nH]1` came in with a melting point of 201 to 203 °C.
As to `CC(=O)NCCCC(=O)c1ccc(Cl)cc1CCC(=O)OCC(N)=O`, the melting point is 114 to 116 °C.
`NCC1c2ccccc2CCN1CC(O)CN1CCOCC1` (stereo not given) displayed a melting point of 138 to 139 °C.
On to `FC(F)(F)c1ccc2c(C3CCNCC3)c[nH]c2c1`, for which the melting point was 210 to 214 °C.
In the case of `COc1ccccc1CC(=O)N1C[C@@H]2[C@H](C1)[C@@](O)(c1ccccc1OC)[C@H](O)CC2(c1ccccc1)c1ccccc1` (racemic) it was 278 °C; in that of `CCOC(=O)c1ccc2c(S)cccn2c1=O`, 111 to 113 °C.
In turn, `CCOC(=O)C1=C(C)N(CCOC(=O)c2ccccc2)C(=O)NC1c1ccccc1` (stereo not given) yielded a melting point of 129 °C.
In the case of `C[C@@H]1CNCc2cc3ccc(C(F)(F)F)cc3n21` it was 123 to 125 °C.
In turn, `Cc1sc(C(=O)O)c2c1-c1c(cnn1CC(F)(F)F)CC2` gave a melting point of 250 to 251 °C.
`Cn1c(Cl)c(C(=O)O)c2ccc(Cl)cc21`: the melting point was 243 to 245 °C.
In the case of `O=C1CCC(C(=O)O)C1` (stereo not given) it was 59 to 60.5 °C; in that of `O=C1NCc2cc(C(=O)CCCl)ccc2N1`, above 270 °C; in that of `Cc1c(C(=O)Nc2ccc(N3CCC(N4CCOCC4)CC3)c(C#N)c2)cnn1-c1ccccc1`, 223 °C.
Compound `CN1C(=O)[C@H](NC(=O)CNc2ccccc2)N=C(c2ccccc2)c2ccccc21` came in with a melting point of 245 to 246 °C.
Next, `COc1ccc(-c2c(C#N)nn(-c3c(Cl)cc(C(F)(F)F)cc3Cl)c2N)cc1OC`: 250 °C; `CCCCCCCCCc1ccc(C(=O)CC(=O)C(=O)OC)cc1`: 52 to 53.5 °C.
Compound `CCCc1[nH]c(C(=O)OCC)c(CC)c1C` showed a melting point of 58 to 59.5 °C.
`COc1cc2cc(-c3cccnc3)cnc2cc1OC` returned a melting point of 131 to 132 °C.
Next, `C=C(C)CC(O)(C(Nc1cccc2nc(C)ncc12)c1ccc(Cl)cc1OC)C(F)(F)F` (stereo not given): 193 °C; `O=C(O)CNC(=O)CN1CCCC1=O`: 149 to 150 °C.
`Cc1ccc(C2CC(CN(C)C)Oc3ccccc32)cc1` (stereo not given) showed a melting point of 114 to 116 °C.
Consider `CS(=O)(=O)Nc1cc([C@@H](O)CNC2CCN(c3ccc(NC(=O)CCC4CCCC4)cc3)CC2)ccc1O`, for which the melting point was in the range of 82 to 90 °C.
Take `O=C1CNc2c(Cl)cccc2N1`: the melting point lay within 191 to 193 °C.
On to `Sc1nc2cc3c(cc2[nH]1)COCO3`, for which the melting point is 288 to 289 °C.
For `Cc1nc(N2CCc3ccccc3CC2)c(C#N)c(=O)n1NC(C)C`, the melting point is 142 to 146 °C.
For the compound `CC(C)(C)c1ccccc1N1CCN(C(=O)c2ccccn2)CC1`, the melting point was in the range of 140 to 145 °C.
The compound `COc1ccc(-c2nc(NC(=O)c3ccccc3)sc2-c2ccnc(NC(=O)c3ccccc3)c2)cc1` showed a melting point of 230 to 233 °C.
Next, `COc1cc(C=O)ccc1OCCCCCCO`: 55 to 56 °C; `COc1ccc(CCNC(C)=O)cc1OC`: 99 to 100 °C.
Next, `Cc1c(C)c2c(c(C)c1N)CC(C)(CN1CCC(C(=O)NCC(c3ccccc3)c3ccccc3)CC1)O2` (stereo not given): 168 to 170 °C.
The compound `FC(F)(F)c1cccc(NC2CCN(c3ccc(Cl)nn3)CC2)c1` came in with a melting point of 118 °C.
In the case of `CN1C(=O)C(N)=C(C(N)=S)C1=O` it was 282 °C.
In the case of `N#CC1(Cl)C=C(O)C=NC1` (stereo not given) it was 182 to 184 °C; in that of `CC1=CCC2(C)C(CCC3C4CCC(=O)C4(C)CCC32)C1` (stereo not given), 124 to 126 °C.
`Oc1cc(Br)c(-c2c3ccccc3c(Br)c3sc4ccccc4c23)cc1O` yielded a melting point of 138 to 140 °C.
Next, `Brc1ccc2c(c1)CC(N1CCNCC1)c1ccccc1S2` (stereo not given): 112 to 115 °C; `CCOC(=O)C1=C(C)NC(C)=C(C(=O)OCC)C1c1cccc(Br)c1`: 125 to 126 °C.
Next, `CC(C)[C@H](NC(=O)OC(C)(C)C)C(=O)NC1CCC(Nc2cccc3c2C(=O)c2ccccc2C3=O)CC1` (stereo not given in full): 179 °C; `COc1ccc(CN(CCCNc2ncc(Cc3ccc(C)nc3)c(=O)[nH]2)c2ccccn2)cc1`: 90 to 98 °C; `O=c1[nH]c2ccc(Cl)cc2n1CCCN1CCC(O)(c2ccc(Cl)cc2)CC1`: 181 °C.
Consider `O=C(Nc1ccc(Cl)c2c(Cl)ccnc12)c1c(Cl)cccc1Cl`, for which the melting point was 243 to 247 °C.
In the case of `CCOC(=O)C(=CNc1cccccc1=O)C(=O)OCC` it was 66 to 68 °C; in that of `CCn1cc(C(=O)O)c(=O)c2cc(F)c(N3CCNC(c4cc5cc(Cl)ccc5o4)C3)cc21` (stereo not given), 262 to 263 °C.
Compound `c1cc(-c2csnn2)ccn1` had a melting point of 121 to 123 °C.
In the case of `CC1(C)CC(=O)Nc2c(Br)cc3c(c21)OC(CN=[N+]=[N-])C3` (stereo not given) it was 187 to 189 °C.
Turning to `O=C(c1ccccc1)c1ccc(-c2ccc(-c3ccc(-c4ccc(C(=O)c5ccccc5)s4)s3)s2)s1`, the melting point was in the range of 307 to 310 °C.
The compound `NC(=O)CCN1CCC(c2noc3cc(F)ccc23)CC1` came in with a melting point of 144 to 147 °C.
Compound `CCCCCc1nc2ccc(C(=O)O)cc2c(=O)[nH]1` came in with a melting point of 310 to 312 °C.
`COc1ccc(-c2nc(-c3cccs3)c[nH]2)cc1Cl` displayed a melting point of 82 to 85 °C.
Regarding `CCCCOc1cc(C(=O)O)n(Cc2ccc(Cl)cc2Cl)n1`, the melting point is 154 to 155 °C.
Take `CCCCc1nccn1Cc1ccc2oc(-c3ccccc3C(=O)O)cc2c1`: the melting point is 153 to 157 °C.
In the case of `O=Cc1cn(Cc2ccc3cc(OCc4ccccc4)ccc3c2)cc1-c1ccccc1` it was 140 to 141 °C; in that of `CN1CCc2c(sc3ncn(CCO)c(=O)c23)C1`, 163 to 165 °C.
`CCCSc1ccc(Oc2ccc(Cl)c(Cl)c2)nc1C#N` displayed a melting point of 67 to 69 °C.
In the case of `CCCc1c(OCCCCC2CC(=O)c3ccc(OCC(=O)O)c(CCC)c3O2)ccc(C(C)=O)c1O` (stereo not given) it was 164 to 167 °C.
As for `COC(=O)CN(C)C(=O)c1c2ccc(Cl)ccc-2[nH]c1=O`, the melting point was in the range of 170 to 172 °C.
Turning to `CCOC(=O)CCCCCC=C(NCCC(O)C1CCCCC1)C(=O)OCC` (stereo not given), the melting point is 97 to 99 °C.
On to `COc1ccc(Cn2c(=O)ccc3c(C)nc(N4CCC[C@H]4CO)nc32)cc1Cl`, for which the melting point was 152 to 153 °C.
As to `CCOC(=O)C1=C(COCC2=CC(=O)N=N2)NC(C)=C(C(=O)OC)C1c1ccccc1Cl` (stereo not given), the melting point was determined as 207 °C.
The compound `COc1ccc2c(c1)c(C(C)=O)cn2C` displayed a melting point of 167 to 168 °C.
Consider `COc1cc2ncc(C#N)c(Nc3cccc(CO)c3C)c2cc1OC`, for which the melting point fell in the range of 123 to 125 °C.
For the compound `COc1ccc(S(=O)(=O)N2CCc3cccc(-c4ccncc4)c32)cc1`, the melting point was 196 to 197 °C.
The compound `CC(=O)Nc1ccc2nc(-c3cc(C)c(OCCO)c(C)c3)[nH]c(=O)c2c1` yielded a melting point above 300 °C.
With `COc1cccc(CN2CCN(CC(=O)N3CC=C(c4cccc(C(F)(F)F)c4)n4cnc(C#N)c43)CC2)c1`, the melting point lay within 131 to 133 °C.
With `CCCCc1n[nH]c(CCCC)n1`, the melting point fell in the range of 50.5 to 51.5 °C.
Next, `COc1cc(Nc2c(C#N)cnc3cc(OCCCN4CCC(N5CCCCC5)CC4)c(OC)cc23)c(Cl)cc1Cl`: 130 to 132 °C.
On to `C#CCCN1CCC(O)(c2ccc(Cl)cc2)CC1`, for which the melting point was 98 to 100 °C.
`Cc1ccccc1-c1ccc(Cl)cc1C(=O)O` came in with a melting point of 135 to 137 °C.
Compound `COC(=O)C1=C(C)NC2=C(C(=O)OC2)C1c1cccc2nc(-c3ccccc3)sc12` (stereo not given) returned a melting point of 275 °C.
The compound `CCCCCCCCCCOc1ccc(-c2c(C)[nH]c(=O)n2C2CCCCC2)cc1` returned a melting point of 137 to 138 °C.
Next, `Cc1cc(C)n(-c2nc(Nc3ccc(C(F)(F)F)cc3)c3ccccc3n2)n1`: 219 to 220 °C; `CCN1CCN(c2nc(-c3ccc(O)cc3)cc3ccccc23)CC1`: 204 to 206 °C; `Cc1ccc(S(=O)(=O)NO[Si](C)(C)C)cc1`: 87 to 90 °C.
With `CN1CC(CCN(C)c2ccccc2)N(C)c2nc3ccccc3n2C1=O` (stereo not given), the melting point fell in the range of 74 to 90 °C.
The compound `Cc1cc(F)c(-n2cnc3ccccc3c2=O)cc1SCC(F)(F)F` gave a melting point of 145 to 147 °C.
For the compound `CC(C)(C)OC(=O)NC1CCCCCC=CC2CC2(C(=O)NS(=O)(=O)C2CC2)NC(=O)C2CC(OC(=O)c3cccnc3)CN2C1=O` (stereo not given), the melting point lay within 157 to 159 °C.
Next, `CC(C)Cn1c(CNC(=O)OC(C)(C)C)c(-c2ccc(Cl)cc2)c2cc(C(N)=O)ccc2c1=O`: 144 to 146 °C.
In turn, `Cc1cc([N+](=O)[O-])c(NCC(O)CO)c([N+](=O)[O-])c1` (stereo not given) came in with a melting point of 118 °C.
Next, `C=CC1CN(S(=O)(=O)c2ccc(C)cc2)CCN1S(=O)(=O)c1ccc(C)cc1` (stereo not given): 177 to 178 °C.
As for `CCOC(=O)C(C)(Sc1cc2ccccc2[nH]1)c1ccccc1` (stereo not given), the melting point is 97 to 99 °C.
For the compound `CN(CCS(C)(=O)=O)C1CCN(S(=O)(=O)c2ccc(Nc3nccc(-c4ccc(F)cc4)n3)cc2)CC1`, the melting point was 166 °C.

A word on the melting point: it is the temperature of the solid-liquid transition.
